Measured values as given in patent US20130096067A1, “DROSOPHILA TUMOR STEM CELL MODEL AND USES THEREOF” (priority 2011, published 2013).
Where two headings read alike, the source gives them in different places. Square brackets hold non-standard residues; d marks the D form. Peptide text beside a SMILES is read from it. * marks the point of attachment. Phe(ol) = N[C@H](CO)Cc1ccccc1; Cbz = O=C(OCc1ccccc1)*; Aib = CC(C)(N)C(=O)O

Tested on: Raf-1^gof intestinal tumors
Conditions: for Log2 (fold) of luciferase activity relative to DMSO controls / Fold (luciferase activity relative to DMSO controls): ICCB compounds fed in vials to flies with one-day old Raf-1^gof tumors; for Fold: Table 3 summary of hits, Screen ICCB, luciferase relative to DMSO, fed three consecutive days in vials
[1] = assessed three days later, averaged from multiple wells
[2] = screen of 480 ICCB compounds in vials, compounds fed to flies with one-day old Raf-1^gof tumors, assessed three days later, esg-Gal4 luciferase
[3] = screen of 480 ICCB compounds in vials, compounds fed to flies with one-day old Raf-1^gof tumors, assessed three days later, esg-Gal4 luciferase, averaged from multiple wells
Throughout, for Fold (luciferase activity relative to DMSO controls): test concentration or dose not given here.
Throughout, for Fold (luciferase activity, fold difference relative to DMSO controls): test concentration or dose not given here.
Throughout, for Log2 (fold) (luciferase activity, log2 of the fold difference relative to DMSO controls): test concentration or dose not given here.
Throughout, for Log2 (fold) of luciferase activity relative to DMSO controls: test concentration or dose not given here.

Structure (SMILES) | Log2 (fold) of luciferase activity relative to DMSO controls (assessed three days later) | Fold (luciferase activity relative to DMSO controls) [1] [fold] | Log2 (fold) (luciferase activity, log2 of the fold difference relative to DMSO controls) [2] | Fold (luciferase activity, fold difference relative to DMSO controls) [3] | further results
CN(C)c1ccc(/C=C2\C(=O)Nc3ccccc32)cc1 [SU-4312] | 0.118 | 1.085 | – | – | –
CC(C)=CC[C@@H](O)C1=CC(=O)c2c(O)ccc(O)c2C1=O [Shikonin] | – | – | −0.795 | 0.576 | –
O=C1CCc2c(ccc3ccccc23)O1 [Splitomycin] | – | – | −0.241 | 0.846 | –
CCCCCc1cc(O)c2c(c1)OC(C)(C)C1CCC(C(=O)O)=CC21 (centres unmarked) [TETRAHYDROCANNABINOL-7-OIC ACID] | – | – | −0.240 | 0.847 | –
COc1ccc2cc1Oc1ccc(cc1)C[C@H]1c3cc(c(OC)cc3CCN1C)Oc1c(OC)c(OC)cc3c1[C@H](C2)N(C)CC3 [TETRANDRINE] | – | – | −0.318 | 0.802 | –
CCN(CC)CCCCCCCCOC(=O)c1cc(OC)c(OC)c(OC)c1 [TMB-8] | – | – | −0.325 | 0.798 | –
Cc1ccc(S(=O)(=O)NC(=O)NN2CCCCCC2)cc1 [TOLAZAMIDE] | – | – | −0.365 | 0.776 | –
CCCCNC(=O)NS(=O)(=O)c1ccc(C)cc1 [TOLBUTAMIDE] | – | – | −0.494 | 0.710 | –
c1ccc(CN(CCN(Cc2ccccn2)Cc2ccccn2)Cc2ccccn2)nc1 [TPEN] | – | – | −0.717 | 0.608 | –
FC(F)(F)c1ccccc1-n1ccnc1 [TRIM] | −0.160 | 0.895 | – | – | –
C/C(=C\c1ccc(C(=O)O)cc1)c1ccc2c(c1)C(C)(C)CCC2(C)C [TTNPB] | −0.114 | 0.924 | – | – | –
Cc1coc2c1C(=O)C(=O)c1c-2ccc2c1CCCC2(C)C [Tanshinone IIA] | – | – | −0.570 | 0.674 | –
Cl.NC(=S)NCCCC(N)C(=O)O [Thiocitrulline [L-Thiocitrulline HCl]] | −0.170 | 0.889 | – | – | –
O=C(O)CNC(=O)C(CS)Cc1ccccc1 (centres unmarked) [Thiorphan] | – | – | −0.673 | 0.627 | –
Cc1ccc(S(=O)(=O)N[C@@H](Cc2ccccc2)C(=O)CCl)cc1 [Tosyl-Phe-CMK (TPCK)] | – | – | −0.233 | 0.851 | –
COc1cc2c(cc1OC)-c1c/c(=N\c3c(C)cc(C)cc3C)n(C)c(=O)n1CC2 [Trequinsin] | – | – | −0.279 | 0.824 | –
N#CC(C#N)=Cc1ccc(O)cc1 [Tyrphostin-8] | – | – | – | – | Fold (luciferase activity, fold difference relative to DMSO controls) (in vivo): 0.796; Log2 (fold) (luciferase activity, log2 of the fold difference relative to DMSO controls) (in vivo): −0.329
COc1ccc2c(c1)CC[C@@H]1[C@@H]2CC[C@]2(C)[C@@H](NCCCCCCN3C(=O)C=CC3=O)CC[C@@H]12 [U73122] | – | – | −0.865 | 0.549 | –
N#CC(=C(/N)Sc1ccccc1N)/C(C#N)=C(/N)Sc1ccccc1N [U-0126] | −0.023 | 0.984 | – | – | –
C1CCC(N=C(NC23CC4CC(CC(C4)C2)C3)N2CCOCC2)CC1.Cl [U-37883A] | – | – | −0.572 | 0.673 | –
CCCCC[C@H](O)/C=C/[C@@H]1[C@@H](C/C=C\CCCC(=O)O)[C@H]2CO[C@@H]1C2 [U-46619] | −0.063 | 0.957 | – | – | –

Structure (SMILES) | Log2 (fold) of luciferase activity relative to DMSO controls (assessed three days later) | Fold (luciferase activity relative to DMSO controls) [1] [fold] | Log2 (fold) (luciferase activity, log2 of the fold difference relative to DMSO controls) [2] | Fold (luciferase activity, fold difference relative to DMSO controls) [3] | further results
C[C@]12C=CC(=O)C=C1CC[C@@H]1C2=CC[C@]2(C)[C@@H](C(=O)CN3CCN(c4cc(N5CCCC5)nc(N5CCCC5)n4)CC3)CC[C@@H]12.O=C(O)/C=C\C(=O)O [U-74389G] | – | – | −0.462 | 0.726 | –
CCCCC/C=C\C[C@@H](O)/C=C/c1cccc(C[C@@H](O)CCCCO)n1 [U-75302] | −0.041 | 0.972 | – | – | –
Cc1c(C(=O)c2cccc3ccccc23)c2cccc3c2n1[C@H](CN1CCOCC1)CO3 [WIN 55,212-2] | – | – | −0.305 | 0.810 | –
Cc1cccc(Nc2cc(Cl)nc(SCC(=O)O)n2)c1C [WY-14643] | 0.020 | 1.014 | – | – | –
C1CCC[C@H]2CCCN3CC[C@@H](CCCCCC[C@@H]4CCCN5CC[C@@H](CC1)O[C@@H]45)O[C@@H]23 [Xestospongin C] | – | – | −0.456 | 0.729 | –
C[C@@H](N)[C@H]1CC[C@H](C(=O)Nc2ccncc2)CC1 [Y-27632] | – | – | −0.380 | 0.768 | –
COc1ccc(CCN(C)CCc2ccc(OC)c(OC)c2)cc1OC [YS035] | −0.152 | 0.900 | – | – | –
O=C[C@@H]1CCCN1C(=O)[C@@H]1CCCN1C(=O)OCc1ccccc1 [Z-prolyl-prolinal] (Cbz-Pro-Pro-aldehyde) | – | – | −0.692 | 0.619 | –
CC(C)C[C@@H](/C=C/S(C)(=O)=O)NC(=O)[C@H](CC(C)C)NC(=O)[C@H](CC(C)C)NC(=O)OCc1ccccc1 [ZL3VS] | – | – | −0.513 | 0.701 | –
CC(O)(C(=O)Nc1ccc(S(=O)(=O)c2ccccc2)cc1)C(F)(F)F (centres unmarked) [ZM226600] | −0.117 | 0.922 | – | – | –
Cc1ccc(NC(=O)c2cccc(N(C)C)c2)cc1NC(=O)c1ccc(O)cc1 [ZM336372] | – | – | −0.338 | 0.791 | –
CC(=O)N[C@@H](CSCC=C(C)CCC=C(C)CCC=C(C)C)C(=O)O [acetyl (N)-s-farnesyl-1-cysteine] | −0.036 | 0.975 | – | – | –
CC(=O)NC(C)(C)C(=O)N1CCC[C@H]1C(=O)NC(C)(C)C(=O)N[C@@H](C)C(=O)NC(C)(C)C(=O)N[C@@H](C)C(=O)N[C@@H](CCC(N)=O)C(=O)NC(C)(C)C(=O)N[C@H](C(=O)NC(C)(C)C(=O)NCC(=O)N[C@@H](CC(C)C)C(=O)NC(C)(C)C(=O)N1CCC[C@H]1C(=O)N[C@H](C(=O)NC(C)(C)C(=O)NC(C)(C)C(=O)N[C@@H](CCC(=O)O)C(=O)N[C@@H](CCC(N)=O)C(=O)N[C@H](CO)Cc1ccccc1)C(C)C)C(C)C [alamethicin, reference compound] (Ac-[Aib]P[Aib]A[Aib]AQ[Aib]V[Aib]GL[Aib]PV[Aib][Aib]EQ[Phe(ol)]) | – | – | −1.167 | 0.445 | Fold: 0.445 fold
COc1ccc(C[C@H]2NC[C@H](O)[C@H]2OC(C)=O)cc1 [anisomycin] | −0.148 | 0.902 | – | – | –
COc1cccc2c1cc([N+](=O)[O-])c1c(C(=O)O)cc3c(c12)OCO3 [aristolochic acid, reference compound] | – | – | −1.243 | 0.422 | Fold: 0.422 fold
CC[C@@H]1/C=C(\C)C[C@H](C)C[C@H](OC)[C@H]2O[C@@](O)(C(=O)C(=O)N3CCCC[C@H]3C(=O)O[C@H](/C(C)=C/[C@@H]3CC[C@@H](O)[C@H](OC)C3)[C@H](C)[C@@H](O)CC1=O)[C@H](C)C[C@@H]2OC [ascomycin (FK-520)] | −0.035 | 0.976 | – | – | –
CO/C1=C\C(C)=C\[C@@H](C)[C@@H](O)[C@@H](C)C/C(C)=C/C=C/[C@H](OC)[C@@H]([C@@H](C)[C@@H](O)[C@H](C)[C@@]2(O)C[C@@H](O)[C@H](C)[C@@H](C(C)C)O2)OC1=O [bafilomycin A1] | – | – | −0.234 | 0.850 | –
CC1(C)CCC2=C(O1)c1ccccc1C(=O)C2=O [beta-lapachone] | 0.070 | 1.050 | – | – | –
CC(C)(Oc1ccc(CCNC(=O)c2ccc(Cl)cc2)cc1)C(=O)O [bezafibrate] | −0.211 | 0.864 | – | – | –
CO[C@H](C/C=C\C=C\CC/C=C/C[C@H](C)/C=C/C(=C\C(=O)O)CC(=O)O)/C(C)=C\C=C(/C)C(=O)O [bongkrekic acid] | −0.102 | 0.932 | – | – | –
C[C@H]1CCC/C=C/[C@@H]2C[C@H](O)C[C@H]2[C@H](O)/C=C/C(=O)O1 [brefeldin A] | – | – | −0.422 | 0.746 | –
